From the SangsterLogP compilation

Row | Compound | logP
1 | Cc1cc(C)cc(O)c1 | 2.35
2 | CN1CCC(=C2c3ccccc3C=Cc3ccccc32)CC1 | 4.69
3 | CNC(=O)Oc1cccc(C)c1 | 1.7
4 | COC(=O)C(C#N)=NNc1ccc(Cl)c(C(F)F)c1 | 3.8
5 | NCCCC[C@H](N)C(=O)O | -3.05
6 | FC(F)(F)c1ccc2cccnc2c1 | 3.02
7 | O=C(O)c1cccc(O)c1 | 1.5
8 | C=CCc1ccccc1OCC(O)CNC(C)C (stereo not given) | 3.1
9 | COC(=O)c1cccnc1 | 0.83
10 | O=[N+]([O-])/C=C/c1cccc(O)c1 | 2.07
11 | CC(=O)Nc1ccc(F)cc1 | 1.47
12 | CCN(CC)N=O | 0.48
13 | CSc1nnc(C)c(=O)n1N | -0.16
14 | CC(C)(C)NC[C@H](O)COc1ccccc1C1CCCC1 | 4.15
15 | CNC(=O)Oc1cccc(OC)c1 | 1.3
16 | CN(Cc1ccccc1)c1ccccc1 | 4.22
17 | COc1ccccc1C(N)=O | 0.86
18 | CC(=O)c1ccc(Br)cc1 | 2.43
19 | O=C(O)c1ncccc1O | -1.27
20 | Cc1ccccc1OCC(=O)O | 1.98
21 | NC(=O)Cc1ccccn1 | -0.65
22 | CC(=O)c1ccc(N)cc1 | 0.83
23 | COP(=O)(OC)OC=C(Cl)Cl | 1.47
24 | OCCN1CCN(CCCN2c3ccccc3Sc3ccc(C(F)(F)F)cc32)CC1 | 4.36
25 | O=C1CN(/N=C/c2ccc([N+](=O)[O-])o2)C(=O)N1 | -0.47

Row | Compound | logP
26 | CN1C(=O)C(=O)c2ccccc21 | 0.58
27 | O=C(O)COc1ccccc1Cl | 1.86
28 | COC(=O)C(C#N)=NNc1ccc(Cl)cc1C | 4.3
29 | COc1cccc(C=O)c1O | 1.37
30 | Brc1cccnc1 | 1.6
31 | Fc1c(F)c(F)c(F)c(F)c1F | 2.55
32 | Oc1cccc2cccnc12 | 2.02
33 | COC(=O)[C@H]1[C@@H](OC(=O)c2ccccc2)C[C@@H]2CC[C@H]1N2C | 2.3
34 | N#C/C(=C\c1ccccc1)C(N)=O | 1.56
35 | O=C(O)Cc1ccc([N+](=O)[O-])cc1 | 1.39
36 | CCCCCCCCCC | 5.01
37 | CC(=O)C(C#N)=NNc1ccc(Cl)c(Cl)c1 | 4.56
38 | O=[N+]([O-])c1cccc(Cl)c1 | 2.46
39 | Cc1ccc2ccccc2c1 | 3.86
40 | O=C(O)COc1ccccc1I | 2.33
41 | NS(=O)(=O)c1ccccc1Cl | 0.74
42 | CC(C)(C)[N+](=O)[O-] | 1.17
43 | ClC=C(Cl)Cl | 2.42
44 | CC(=O)OCC1=C(C(=O)O)N2C(=O)[C@@H](NC(=O)Cc3cccs3)[C@H]2SC1 | 0
45 | NC12CC3CC(CC(C3)C1)C2 | 2.44
46 | Cc1cccc2c(C)cccc12 | 4.38
47 | O=C(O)CSc1ccccc1 | 1.91
48 | C1CO1 | -0.3
49 | O=[N+]([O-])c1ccc(Cl)cc1 | 2.39
50 | Cc1cc(C)c(C)cc1C | 4

Row | Compound | logP
51 | CCOc1ccc([N+](=O)[O-])cc1 | 2.53
52 | NC(=O)c1ccc(Br)cc1 | 1.76
53 | CC(=O)C(C#N)=NNc1ccc(Cl)cc1 | 4.1
54 | OCC(Cl)(Cl)Cl | 1.42
55 | Cc1ccccc1N | 1.32
56 | CC=CC | 2.33
57 | NC(=O)c1ccc(N)nc1 | 0.7
58 | CNC(=O)Oc1ccc(OC)cc1 | 1.2
59 | CC1(C)SC2C(NC(=O)C(N)c3ccc(O)cc3)C(=O)N2C1C(=O)O (stereo not given) | 0.87
60 | Nc1ccccc1 | 0.9
61 | Nc1ccccc1[N+](=O)[O-] | 1.85
62 | c1ccc2[nH]nnc2c1 | 1.44
63 | NC(=O)N(CCCl)N=O | 0.57
64 | C=C1C(=O)OC2CC(C)C3C=CC(=O)C3(C)C(O)C12 (stereo not given) | 0.87
65 | COc1ccc2c(c1)N(CCCN(C)C)c1ccccc1S2 | 4.9
66 | CN1C(=O)CC(=O)N(c2ccccc2)c2cc(Cl)ccc21 | 2.12
67 | Oc1ncnc2[nH]ncc12 | -0.55
68 | COC(=O)C(C#N)=NNc1ccc(S(=O)(=O)C(F)(F)F)cc1 | 4.22
69 | OCc1ccc(O)cc1 | 0.25
70 | Cc1cc(O)c(C(C)(C)C)cc1CC(N)=O | 2.67
71 | C(=C\c1ccccc1)/c1ccccc1 | 4.81
72 | CC(=O)S[C@@H]1CC2=CC(=O)CC[C@]2(C)[C@H]2CC[C@@]3(C)[C@@H](CC[C@@]34CCC(=O)O4)[C@H]12 | 2.78
73 | CC(=O)C(C#N)=NNc1cccc(Cl)c1 | 3.9
74 | CCCCNc1ccc(C(=O)OCCN(C)C)cc1 | 3.51
75 | CS(=O)(=O)c1ccccc1 | 0.5

Row | Compound | logP
76 | CCCCCCC(C)=O | 2.37
77 | O=C1CCCCCN1 | -0.19
78 | COc1ccccc1O | 1.32
79 | CSc1nnc(C(C)C)c(=O)n1N | 1.01
80 | CBr | 1.19
81 | Cc1cccc(C)c1C | 3.66
82 | CCCCCCCC(C)=O | 3.14
83 | CC(=O)c1ccc([N+](=O)[O-])cc1 | 1.53
84 | COc1ccc(OC)c(CC(C)N)c1 (stereo not given) | 1.72
85 | O=C(O)CCCc1ccccc1 | 2.42
86 | CC[C@H](C)[C@H](N)C(=O)O | -1.7
87 | Nc1ccc(-c2ccc(N)cc2)cc1 | 1.34
88 | Cc1cc([N+](=O)[O-])c2ccccc2[n+]1[O-] | 1.25
89 | Nc1ccc(C(=O)O)cc1Cl | 1.52
90 | O=C(NC(CO)C(O)c1ccc([N+](=O)[O-])cc1)C(Br)(Br)Br (stereo not given) | 2.17
91 | NCCc1ccc(O)c(O)c1 | -0.98
92 | O=C(O)c1ccc(O)cc1O | 1.63
93 | COc1ccc2[nH]ccc2c1 | 2.06
94 | CCOC(=O)c1ccc(N)cc1 | 1.86
95 | O=C1CCCC(=O)N1 | 1.9
96 | Nc1ccn(C2C=CC(CO)O2)c(=O)n1 (stereo not given) | -1.55
97 | CC(CN1CCOCC1)C(C(=O)N1CCCC1)(c1ccccc1)c1ccccc1 (stereo not given) | 3.61
98 | COc1cccc(C(=O)O)c1 | 2.02
99 | CCOC(=O)C(C#N)=NNc1ccc(Cl)c(Cl)c1 | 4.66
100 | OCCN1CCN(CC/C=C2\c3ccccc3Sc3ccc(C(F)(F)F)cc32)CC1 | 4.51

Row | Compound | logP
101 | Cn1nnc2ccccc21 | 1.13
102 | NS(=O)(=O)c1ccc(Br)cc1 | 1.36
103 | Nc1nc(N)c2ncn([C@H]3C[C@H](F)[C@@H](CO)O3)c2n1 | 0.05
104 | NC(=O)C1(N2CCCCC2)CCN(CCCC(=O)c2ccc(F)cc2)CC1 | 2.02
105 | CCOC(=O)C(C#N)=NNc1cc(Cl)c(Cl)cc1Cl | 5.21
106 | NC(=O)CCCn1nnc2ccccc21 | 0.37
107 | c1ccc2[nH]ccc2c1 | 2.14
108 | CCCCCn1nnc2ccccc21 | 3.22
109 | Nc1ccc(S(=O)(=O)c2ccc(N)cc2)cc1 | 0.97
110 | N#Cc1ccccn1 | 0.45
111 | O=NN1CCCCC1 | 0.36
112 | CC(=O)Nc1ccc([N+](=O)[O-])cc1 | 1.66
113 | CCN(C)C | 0.7
114 | CNC(=O)Oc1cccc(C#N)c1 | 0.97
115 | O=[N+]([O-])c1ccc2c(ccc[n+]2[O-])c1 | 0.39
116 | O=C(O)CCCCn1nnc2ccccc21 | 0.48
117 | CC(=O)c1ccncc1 | 0.48
118 | O=C(O)COc1ccccc1[N+](=O)[O-] | 1.13
119 | Nc1ncnc2[nH]cnc12 | -0.09
120 | CCOC(=O)c1ccc(O)cc1 | 2.47
121 | COC1=CC(=O)C[C@@H](C)[C@]12Oc1c(Cl)c(OC)cc(OC)c1C2=O | 2.18
122 | Oc1cccc(Br)c1 | 2.63
123 | [N-]=[N+]=N[C@H]1C[C@H](n2ccc(=O)[nH]c2=O)O[C@@H]1CO | -0.32
124 | O=C(O)c1ccccc1Nc1cccc(C(F)(F)F)c1 | 5.25
125 | Cc1c[nH]c(=O)[nH]c1=O | -0.62

Row | Compound | logP
126 | O=C(O)c1ccc([N+](=O)[O-])cc1 | 1.89
127 | CC=Cc1ccccc1 | 3.35
128 | Oc1cccc(F)c1 | 1.93
129 | Nc1cccc(Cl)c1Cl | 2.82
130 | C[C@@H]1C[C@H]2[C@@H]3CCC4=CC(=O)C=C[C@]4(C)[C@@]3(F)[C@@H](O)C[C@]2(C)[C@@]1(O)C(=O)CO | 1.83
131 | CC1=c2[nH]c3c(c2CCN1)C=CC(=O)C=3 | 2.19
132 | OCC1OC(Oc2ccc(O)cc2)C(O)C(O)C1O (stereo not given) | -1.35
133 | Nc1ccc(C(=O)O)c([N+](=O)[O-])c1 | 0.38
134 | C=CCN1CC[C@]23c4c5ccc(O)c4O[C@H]2[C@@H](O)C=C[C@H]3[C@H]1C5 | 1.86
135 | C=CCBr | 1.79
136 | O=[N+]([O-])c1cc[n+]([O-])c2c(F)cccc12 | 1
137 | CCCC(C)(COC(N)=O)COC(N)=O | 0.7
138 | CN(C)C(=O)c1ccccc1 | 0.62
139 | Nc1ccc(Oc2ccccc2)cc1 | 2.96
140 | CCOC(=O)C=Cc1ccccc1 | 2.99
141 | Cc1cc(N)c(C)c(O)c1C(=O)O | 3.38
142 | CCCNCCC | 1.67
143 | CCS(=O)(=O)CCn1c([N+](=O)[O-])cnc1C | -0.35
144 | CC1=CC(=O)c2ccccc2C1=O | 2.2
145 | Cc1ccnc(NS(=O)(=O)c2ccc(N)cc2)n1 | 0.14
146 | C1CNCCN1 | -1.5
147 | Oc1c(Cl)cc(Cl)c(Cl)c1Cl | 4.45
148 | Cc1cc(=O)oc2cc(O)ccc12 | 1.9
149 | CCc1ccc(O)cc1 | 2.58
150 | C1CN2CCC1CC2 | 1.38

Row | Compound | logP
151 | OCCBr | 0.23
152 | Cn1cccc1 | 1.21
153 | Nc1cccc2ncccc12 | 1.16
154 | CCNC(=O)c1ccc(S(N)(=O)=O)cc1 | 0.03
155 | Cn1c([N+](=O)[O-])cnc1COC(N)=O | -0.38
156 | CC(=O)c1ccc(O)cc1 | 1.35
157 | CCCC(C)C1(CC)C(=O)NC(=S)NC1=O (stereo not given) | 2.85
158 | Cc1ncc(CO)c(CO)c1O | -0.77
159 | NC(=O)CCCCc1ccccn1 | 0.38
160 | O=[N+]([O-])c1cc[n+]([O-])c2c([N+](=O)[O-])cccc12 | 0.76
161 | CCCCCC(=O)O | 1.92
162 | COc1ccc2c3c1O[C@H]1[C@@H](O)C=C[C@H]4[C@@H](C2)N(C)CC[C@@]341 | 1.19
163 | CCCC[N+](=O)[O-] | 1.47
164 | NS(=O)(=O)c1ccc(O)cc1 | 0.06
165 | CNC(=O)Oc1cc(C)cc(C)c1 | 2.23
166 | COc1cccc([N+](=O)[O-])c1 | 2.16
167 | O=C(O)c1ccccc1Nc1ccccc1 | 4.36
168 | CCCCCC1Nc2cc(C(F)(F)F)c(S(N)(=O)=O)cc2S(=O)(=O)N1 (stereo not given) | 2.66
169 | CC1CCC(NC(=O)N(CCCl)N=O)CC1 (stereo not given) | 3.3
170 | Cc1ccc(C(C)C)cc1 | 4.1
